Measured values reported in ChEMBL document CHEMBL6103619, “Discovery of a Novel CRBN-Recruiting cGAS PROTAC Degrader for the Treatment of Ulcerative Colitis” (J Med Chem, 2025).
Calls of active or inactive are those of the source. The rule behind the calls is not given here.

Experiments:
Format in all cases: cell-based
[1] = target: T1, Protein cereblon/Cyclic GMP-AMP synthase (Homo sapiens, UniProt Q96SW2+Q8N884); assay: PROTAC activity at CRBN/cGAS in human THP-1 cells assessed as induction of cGAS degradation at 10 uM preincubated with compound for 40 hrs followed by HT-DNA stimulation and measured after 8 hrs by Western blot analysis relative to control; settings: time 48.0 hrs
T1 sequence (Q8N884 whole entry, looked up): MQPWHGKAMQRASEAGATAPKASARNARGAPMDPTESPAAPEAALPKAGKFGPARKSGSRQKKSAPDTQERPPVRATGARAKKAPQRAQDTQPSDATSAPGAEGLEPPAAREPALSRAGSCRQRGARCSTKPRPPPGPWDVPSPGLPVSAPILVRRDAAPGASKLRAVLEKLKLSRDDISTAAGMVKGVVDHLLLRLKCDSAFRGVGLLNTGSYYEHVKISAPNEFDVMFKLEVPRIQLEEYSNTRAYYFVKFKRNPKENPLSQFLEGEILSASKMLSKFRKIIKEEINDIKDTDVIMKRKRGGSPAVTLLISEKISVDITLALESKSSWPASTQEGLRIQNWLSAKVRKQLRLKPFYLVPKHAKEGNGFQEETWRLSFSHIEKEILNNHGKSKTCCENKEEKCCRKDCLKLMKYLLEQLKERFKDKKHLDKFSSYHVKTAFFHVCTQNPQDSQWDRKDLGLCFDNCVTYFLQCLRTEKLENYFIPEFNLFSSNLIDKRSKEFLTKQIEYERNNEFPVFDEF
T1 sequence (Q96SW2 whole entry, looked up): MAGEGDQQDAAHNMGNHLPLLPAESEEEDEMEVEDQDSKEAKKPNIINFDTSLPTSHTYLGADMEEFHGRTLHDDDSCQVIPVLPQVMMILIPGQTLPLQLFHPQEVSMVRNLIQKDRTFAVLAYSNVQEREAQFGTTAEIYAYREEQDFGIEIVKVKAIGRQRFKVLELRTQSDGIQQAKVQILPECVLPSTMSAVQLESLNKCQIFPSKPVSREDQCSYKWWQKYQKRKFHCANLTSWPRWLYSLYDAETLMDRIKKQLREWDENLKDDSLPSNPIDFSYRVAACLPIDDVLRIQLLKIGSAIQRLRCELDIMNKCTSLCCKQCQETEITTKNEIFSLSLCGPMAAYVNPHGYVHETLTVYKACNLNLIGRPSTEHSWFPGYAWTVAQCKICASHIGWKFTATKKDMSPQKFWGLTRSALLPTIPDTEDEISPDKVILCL

[2] = Inhibition of dsDNA-induced cGAS signaling pathway in mouse RAW-Lucia ISG cells preincubated with compound for 24 hrs followed by HT-DNA addition and measured after 24 hrs by QUANTI-Luc luciferase reagent based assay
[3] = Inhibition of dsDNA-induced cGAS signaling pathway in human THP1-Lucia ISG cells preincubated with compound for 24 hrs followed by HT-DNA addition and measured after 24 hrs by QUANTI-Luc luciferase reagent based assay
[4] = test system: THP-1; assay: Induction of cGAS degradation in human THP-1 cells at 10 uM preincubated with compound for 40 hrs followed by HT-DNA stimulation and measured after 8 hrs by Western blot analysis relative to control; settings: time 48.0 hrs
[5] = target: T1, Protein cereblon/Cyclic GMP-AMP synthase; assay: PROTAC activity at CRBN/cGAS in human THP-1 cells assessed as induction of cGAS degradation at 10 uM incubated for 48 hrs by Western blot analysis

| SMILES | Activity [1] | IC50 [2] | IC50 [3] | Activity [4] | Activity [5] |
| --- | --- | --- | --- | --- | --- |
| Cn1ccc(-c2cc(Cl)c(Cl)c3[nH]c4c(c23)CN(C(=O)CNC(=O)CN2CCN(C(=O)COc3cccc5c3C(=O)N(C3CCC(=O)NC3=O)C5=O)CC2)CC4)n1 (stereo unspecified) | 18.7% | > 50 µM | > 50 µM | – | – |
| O=C1CCC(N2C(=O)c3cccc(NCCCCCCCCC(=O)N4CC(Cn5cc(-c6cc(Cl)c(Cl)c7[nH]c8c(c67)CN(C(=O)CO)CC8)cn5)C4)c3C2=O)C(=O)N1 (stereo unspecified) | 21.2% | > 50 µM | > 50 µM | – | – |
| O=C1CCC(N2C(=O)c3cccc(NCCCCCCC(=O)N4CCC(Cn5cc(-c6cc(Cl)c(Cl)c7[nH]c8c(c67)CN(C(=O)CO)CC8)cn5)CC4)c3C2=O)C(=O)N1 (stereo unspecified) | 44.7% | > 50 µM | 25.8 µM | – | – |
| Nc1cccc2c1CN(C1CCC(=O)NC1=O)C2=O (stereo unspecified) [LENALIDOMIDE] | – | > 50 µM | > 50 µM | 0.3% | – |
| Cn1ccc(-c2cc(Cl)c(Cl)c3[nH]c4c(c23)CN(C(=O)CNC(=O)CC2CCN(C(=O)COc3cccc5c3C(=O)N(C3CCC(=O)NC3=O)C5=O)CC2)CC4)n1 (stereo unspecified) | 6.3% | > 50 µM | > 50 µM | – | – |
| Cn1ccc(-c2cc(Cl)c(Cl)c3[nH]c4c(c23)CN(C(=O)CNC(=O)CCCNc2cccc3c2C(=O)N(C2CCC(=O)NC2=O)C3=O)CC4)n1 (stereo unspecified) | 58.7% | 25.6 µM | 12.2 µM | – | – |
| Cn1ccc(-c2cc(Cl)c(Cl)c3[nH]c4c(c23)CN(C(=O)CNC(=O)CCCCCCCCCNc2cccc3c2C(=O)N(C2CCC(=O)NC2=O)C3=O)CC4)n1 (stereo unspecified) | 12.4% | > 50 µM | > 50 µM | – | – |
| Cn1ccc(-c2cc(Cl)c(Cl)c3[nH]c4c(c23)CN(C(=O)CNC(=O)CCN2CCN(C(=O)COc3cccc5c3C(=O)N(C3CCC(=O)NC3=O)C5=O)CC2)CC4)n1 (stereo unspecified) | 15.1% | > 50 µM | > 50 µM | – | – |
| Cn1ccc(-c2cc(Cl)c(Cl)c3[nH]c4c(c23)CN(C(=O)CNC(=O)CCCCCCCNc2cccc3c2C(=O)N(C2CCC(=O)NC2=O)C3=O)CC4)n1 (stereo unspecified) | 34.2% | > 50 µM | 29.6 µM | – | – |
| Cn1ccc(-c2cc(Cl)c(Cl)c3[nH]c4c(c23)CN(C(=O)CNC(=O)CCCC#Cc2cccc3c2C(=O)N(C2CCC(=O)NC2=O)C3=O)CC4)n1 (stereo unspecified) | 56.1% | 30.8 µM | 12.8 µM | – | – |
| O=C1CCC(N2C(=O)c3cccc(NCCOCCOCC(=O)N4CCC(Cn5cc(-c6cc(Cl)c(Cl)c7[nH]c8c(c67)CN(C(=O)CO)CC8)cn5)CC4)c3C2=O)C(=O)N1 (stereo unspecified) | 44.3% | > 50 µM | 33.6 µM | – | – |
| Cn1ccc(-c2cc(Cl)c(Cl)c3[nH]c4c(c23)CN(C(=O)CNC(=O)CCCCC#Cc2ccc3c(c2)CN(C2CCC(=O)NC2=O)C3=O)CC4)n1 (stereo unspecified) | 21.9% | > 50 µM | > 50 µM | – | – |
| O=C1CCC(N2C(=O)c3cccc(NCCCCCC(=O)N4CCC(Cn5cc(-c6cc(Cl)c(Cl)c7[nH]c8c(c67)CN(C(=O)CO)CC8)cn5)CC4)c3C2=O)C(=O)N1 (stereo unspecified) | 57.7% | 39.8 µM | 20.5 µM | – | – |
| Cn1ccc(-c2cc(Cl)c(Cl)c3[nH]c4c(c23)CN(C(=O)CNC(=O)CCOCCOCCOCCOCCNc2cccc3c2C(=O)N(C2CCC(=O)NC2=O)C3=O)CC4)n1 (stereo unspecified) | 20.5% | > 50 µM | > 50 µM | – | – |
| Cn1ccc(-c2cc(Cl)c(Cl)c3[nH]c4c(c23)CN(C(=O)CNC(=O)CCCCCCCCNc2cccc3c2C(=O)N(C2CCC(=O)NC2=O)C3=O)CC4)n1 (stereo unspecified) | 30.4% | > 50 µM | 37.1 µM | – | – |
| Cn1ccc(-c2cc(Cl)c(Cl)c3[nH]c4c(c23)CN(C(=O)CCCC#Cc2cccc3c2CN(C2CCC(=O)NC2=O)C3=O)CC4)n1 (stereo unspecified) | 40.4% | 35.6 µM | 25.6 µM | – | – |
| O=C1CCC(N2C(=O)c3cccc(NCCOCCOCCOCCOCCOCCOCCOCCOCCC(=O)N4CCC(Cn5cc(-c6cc(Cl)c(Cl)c7[nH]c8c(c67)CN(C(=O)CO)CC8)cn5)CC4)c3C2=O)C(=O)N1 (stereo unspecified) | 4.6% | > 50 µM | > 50 µM | – | – |
| O=C1CCC(N2C(=O)c3cccc(NCCCCCCCCC(=O)N4CCC(Cn5cc(-c6cc(Cl)c(Cl)c7[nH]c8c(c67)CN(C(=O)CO)CC8)cn5)CC4)c3C2=O)C(=O)N1 (stereo unspecified) | 23.9% | > 50 µM | > 50 µM | – | – |
| CN1C(=O)CCC(N2Cc3c(C#CCCCC(=O)NCC(=O)N4CCc5[nH]c6c(Cl)c(Cl)cc(-c7ccn(C)n7)c6c5C4)cccc3C2=O)C1=O (stereo unspecified) | – | – | – | – | inactive |
| Cn1ccc(-c2cc(Cl)c(Cl)c3[nH]c4c(c23)CN(C(=O)CNC(=O)COCCOCCOCCNc2cccc3c2C(=O)N(C2CCC(=O)NC2=O)C3=O)CC4)n1 (stereo unspecified) | 34.6% | > 50 µM | 28.1 µM | – | – |
| Cn1ccc(-c2cc(Cl)c(Cl)c3[nH]c4c(c23)CN(C(=O)CNC(=O)CCCCCCCCCCCNc2cccc3c2C(=O)N(C2CCC(=O)NC2=O)C3=O)CC4)n1 (stereo unspecified) | 4.3% | > 50 µM | > 50 µM | – | – |
